Results on ten compounds are retold here after patent publication US20110082087A1, “COMPOUNDS FOR TREATING PAIN” (Edificio ICAT, priority 2008, published 2011).

The amount remaining is what is left of the initial amount, in per cent.

Data set [1] is described as follows: Plasma serum stability of analogues. Conditions: Human Serum, 1-hour incubation, read-out: Mean Parent Remaining (%); for remaining at 1 h, 400 uM: test concentration 400 uM; for remaining at 1 h, 800 uM: test concentration 800 uM. In kind it is in vitro ADME. The method, then:
These analogues were tested for plasma serum stability, in comparison with KTP-NH2.

Data set [2] has as its system rats (Wister, male). As to the kind of experiment: Increasing-temperature Hot Plate test. Conditions: i.p.; rat. In kind it is in vivo, rat. The protocol: (§1) In vivo behavioural anti-nociception tests were carried out in rats (Wister, male). Unless otherwise stated, compounds were administered by intra-peritoneal (i.p.) injection. For most assays, the Tail Flick and the Hot Plate tests were used.
The hot-plate test (Eddy N. B and Leimbach D. 1953. Synthetic analgesics II. Dithienylbutenyl and dithienylbutylamines J. Pharmacol. Exp. Ther. 45: 339) evaluates a supraspinally integrated response in the form of thermal pain reflexes due to footpad contact with a heated surface. During the experiments, the animal is confined in a removable clear acrylic compartment where the latency time to the first hind paw or/and jumping responses are measured. […] The response is the licking of the hindpaw, and the corresponding plate temperature represents the recorded nociceptive end-point. The advantage of Increasing-Temperature Hot-Plate test over the standard constant-temperature hot-plate test is the higher sensitivity and the lack of influences of pre-exposure to the hot-plate before testing. Animal reaction temperature is a measurement of animal resistance to pain and is used to measure efficacy of analgesics.

Data set [3] deals with rats (Wister, male). The experiment in a line: Tail Flick test. It counts as in vivo, rat. The note with it: i.p.; rat. The protocol:
as §1
The tail-flick test (D'Amour F. E., Smith D. L. 1941. A method for determining the loss of pain sensation. J Pharmacol Exp Ther 1941; 72:74-79) is a standard investigative tool for pain and analgesia assessment in rodents. It is based on a spinal reflex response of the tail to radiant heat. Pain sensitivity in rats was measured as they responded to the application of radiant heat to a small area of their tails. The rat's tail was placed over a window located on a platform and subjected to irradiation by an intense light beam (10 W). When the rat feels discomfort, it flicks its tail which automatically stops the timer. The reaction time from activation of the light beam to the tail flick is automatically presented on a digital display. A cut-off time of 24 s was applied. Animal reaction time is a measurement of animal resistance to pain and is used to measure efficacy of analgesics.
(In general: In hot-plate and tail-flick tests a longer latency is read as antinociception.)

In data set [4] the test system is rats. As to the kind of experiment: Comparison with morphine, behavioural nociception tests and behaviour observation. It counts as in vivo, rat. The note with it: rats; i.p. The method, then: as §1
The analgesic potential of KTP-NH2 was also verified by comparison with well-known, widely-used analgesic molecules: ibuprofen and morphine.
From FIG. 12 it is possible to observe that the efficacy of 3 mg/100 g of KTP-NH2 is similar to that observed with 0.5 mg/100 g dose of morphine.

The nature of data set [5]: Partition into lipid bilayer vesicles (fluorescence titration). It counts as physicochemical. Conditions: mammal-mimetic lipid bilayer vesicle; numerical treatment of fluorescence titration. The text has this: We performed biophysical studies using fluorescent methodologies in order to characterize the interaction of KTP-NH2 with liposomes representing human cell membranes (Santos N. C., Prieto M. and Castanho M. A. 2003. Quantifying molecular partition into model systems of biomembranes: an emphasis on optical spectroscopic methods. Biochim Biophys Acta 1612: 123-135.). A clear interaction of KTP-NH2 with the lipid bilayers was observed. […] When titrated with a mammal-mimetic lipid bilayer vesicle (circles), the fluorescence intensity of the phenolic moiety increases due to insertion in the apolar environment created by the lipids. The POPC system mimetizes the external layer of human cell membranes, whereas POPG lipidic mixture mimetizes the internal layer of human cell membranes.
In order to confirm that these plasma-stable KTP-NH2 derivatives maintained their lipophilicity, their potential interaction with human cell membranes was assessed. Again, we performed biophysical studies using fluorescent methodologies (Santos N. C., Prieto M. and Castanho M. A. 2003. Quantifying molecular partition into model systems of biomembranes: an emphasis on optical spectroscopic methods. Biochim Biophys Acta 1612: 123-135.).

As for `N=C(N)NCCC[C@@H](NC(=O)[C@H](N)Cc1ccc(O)cc1)C(N)=O` [D-Tyr-D-Arg-NH2, D-Tyrosyl-D-Arginine-NH2], the fraction remaining at 1 h, 400 uM in data set [1] stood at 98.4%.

Consider `N=C(N)NCCC[C@H](NC(=O)[C@H](N)Cc1ccc(O)cc1)C(N)=O` [D-Tyr-L-Arg-NH2, D-Tyrosyl-L-Arginine-NH2], for which the fraction remaining at 1 h, 400 uM in data set [1] came to 98%.

As to `CC(C)Cc1ccc(C(C)C(=O)N[C@H](Cc2ccc(O)cc2)C(=O)N[C@@H](CCCNC(=N)N)C(N)=O)cc1` (stereo partly drawn) [Ibu-D-Tyr-L-Arg-NH2, Ibuprofen-D-Tyrosyl-L-Arginine-NH2], the fraction remaining at 1 h, 800 uM in data set [1] amounted to 94.1%.

For `CC(C)Cc1ccc([C@H](C)C(=O)N[C@@H](Cc2ccc(O)cc2)C(=O)N[C@@H](CCCNC(=N)N)C(N)=O)cc1` [Ibu-KTP-NH2, Ibuprofen-L-Tyrosyl-L-Arginine-NH2], in data set [1], the amount remaining at 1 h, 800 uM was found to be 51.4%.

`N=C(N)NCCC[C@H](NC(=O)[C@@H](N)Cc1ccc(O)cc1)C(=O)O` [KTP, L-Tyrosyl-L-Arginine, reference compound]: the “effect in hot plate test” value in data set [2] was “very small effect”. In addition, in data set [3], the “effect on tail flick latency” value is listed as “very small effect”.

For the compound `N=C(N)NCCC[C@@H](NC(=O)[C@@H](N)Cc1ccc(O)cc1)C(N)=O` [L-Tyr-D-Arg-NH2, L-Tyrosyl-D-Arginine-NH2], the share remaining at 1 h, 400 uM in data set [1] stood at 78.8%.

In the case of `CN[C@@H](Cc1ccc(O)cc1)C(=O)N[C@H](CCCNC(=N)N)C(N)=O` [Me-L-Tyr-D-Arg-NH2, Methyl-L-Tyrosyl-D-Arginine-NH2], the fraction remaining at 1 h, 400 uM in data set [1] is 98.5%.

With `CN[C@@H](Cc1ccc(O)cc1)C(=O)N[C@@H](CCCNC(=N)N)C(N)=O` [Me-L-Tyr-L-Arg-NH2, Methyl-L-Tyrosyl-L-Arginine-NH2], the share remaining at 1 h, 400 uM in data set [1] is 89%.

`CN1CC[C@]23c4c5ccc(O)c4O[C@H]2[C@@H](O)C=C[C@H]3[C@H]1C5` [morphine, reference compound]: in data set [4], the “alterations in behavior (secondary effects)” value is given as “several alterations in behavior, like scratching”.

Consider “Ibuprofen-L-Tyrosyl-L-Arginine-OH [Ibu-KTP]”, for which the “local concentration in the model membrane of mammals relative to surrounding bulk aqueous phase” value in data set [5] is on record as around 333 fold.
